This is an account of results in ChEMBL document CHEMBL1133203, “Synthesis of L-(+)-3-(3-hydroxy-4-pivaloyloxybenzyl)-2,5-diketomorpholine as potential prodrug of L-dopa” (Bioorg Med Chem Lett, 2000).

≈ marks a conversion by molar mass, not a printed value.

The nature of data set [1]: Partition coefficient is determined in octanol/buffer solution at pH 7.4. It is filed as physicochemical.
A short description of data set [2]: Rate constant in chemical and enzymatic hydrolysis, in buffer at pH 1.3. The class given is ADME.
Data set [3] can be described thus: Half-life in chemical and enzymatic hydrolysis, in buffer at pH 7.4. The class given is ADME.
A short description of data set [4]: Aqueous solubility was evaluated. The class given is physicochemical. To be noted: buffer.
A further data set is filed under the species Rattus norvegicus. Nature of the data set: Rate constant in chemical and enzymatic hydrolysis, in 80% rat plasma. The class given is ADME.
The nature of data set [5]: Half-life in chemical and enzymatic hydrolysis, in 80% rat plasma. The class given is ADME.
A short description of data set [6]: Rate constant in chemical and enzymatic hydrolysis to form another compound (8)*, in 80% human plasma (experiment 1). The class given is ADME, cell-free.
Data set [7] can be described thus: Rate constant in chemical and enzymatic hydrolysis, in buffer at pH 7.4. It is filed as ADME.
Data set [8] in a line: Half-life in chemical and enzymatic hydrolysis, in buffer at pH 1.3. The class given is ADME.
Data set [9] in a line: Rate constant in chemical and enzymatic hydrolysis to form another compound (8)*, in 80% human plasma (experiment 2). The class given is ADME, cell-free.
A short description of data set [10]: Rate constant in chemical and enzymatic hydrolysis to form L-DOPA, in 80% human plasma. It is filed as ADME, cell-free.

For `CC(C)(C)C(=O)Oc1ccc(C[C@@H]2NC(=O)COC2=O)cc1O`, in data set [1], the logD is 2.15. Besides, the K obs is 0.00022 min⁻¹ in data set [2]; 0.29 min⁻¹ in the data set listed under Rattus norvegicus; 0.019 min⁻¹ in [6]; 0.0075 min⁻¹ in data set [7]; 0.019 min⁻¹ in data set [9]. For the same compound, the half-life in data set [3] worked out at 1.55 h; in data set [5], 2.7 min; in data set [8], 52.3 h. In [4], the solubility amounted to 50 µg/mL (≈ 156 µM).
As to `O=C1COC(=O)[C@H](Cc2ccc(O)c(O)c2)N1`, the K obs in [10] turned out to be 0.0047 min⁻¹.

Broadly, the logD is the decadic logarithm of the distribution of all forms, ionised or not, between an organic phase and buffer at a given pH. The low end stands for a more hydrophilic compound, the high end for a more lipophilic compound. As usually defined, the half-life is the time needed for the level to fall by half in the phase considered. As usually defined, the solubility is how much of the substance goes into solution per volume.
